Patent publication US9540343B2 (Gilead Sciences, Inc., priority 2011, dated 2017)

Experiments:
in vitro = experiment: in vitro
Method in brief: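 Cytoprotection read-out: CellTiter-Glo chemiluminescence after 5 days at 37 °C of HIV-IIIb-infected MT-4 cells (m.o.i. 0.003) with compound in 10-point 3-fold dilutions, quadruplicate, 10% FBS. Cytotoxicity (CC50) measured identically without virus.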

HIV-IIIb = experiment: Test A: Antiviral assay in MT4 cells; type: cell-based, HIV-1; conditions: Human immunodeficiency virus 1, IIIB, MT4, 120 h, read-out: % inhibition at 2 μM, percent inhibition of virus-induced cell killing, from dose response curve at 2 uM drug; MT-4 cells infected with HIV-IIIb, 5 days, CellTiter-Glo
[1] = human, uninfected MT-4 cells, CC50 (nM), same protocol as Test A, CellTiter-Glo

| SMILES | CC50 at 5 days (in vitro; [1]) [nM] | inhibition at 2 µM (HIV-IIIb) [%] | CC50 at 5 days (in vitro; human, CC50 (nM), uninfected MT-4 cells, same protocol as Test A, CellTiter-Glo) [nM] |
| --- | --- | --- | --- |
| Cc1cc(C(F)(F)F)nn1CC(=O)N[C@@H](Cc1cc(F)cc(F)c1)c1ncccc1-c1ccc(F)c(C(N)=O)c1 [Example 385, (S)-5-(2-(2-(3,5-difluorophenyl)-1-(2-(5-methyl-3-(trifluoromethyl)-1H-pyrazol-1-yl)acetamido)ethyl)pyridin-3-yl)-2-fluorobenzamide] | > 53200 | 40 | – |
| NC(=O)c1cc(-c2cccnc2[C@H](Cc2cc(F)cc(F)c2)NC(=O)Cn2cc(C(F)(F)F)nc2C2CC2)ccc1F [Example 88E, (S)-5-(2-(1-(2-(2-cyclopropyl-4-(trifluoromethyl)-1H-imidazol-1-yl)acetamido)-2-(3,5-difluorophenyl)ethyl)pyridin-3-yl)-2-fluorobenzamide] | > 53200 | 44 | – |
| NC(=O)c1cccc(-c2cccnc2[C@H](Cc2cc(F)cc(F)c2)NC(=O)Cn2ccc3cc(F)c(F)cc32)c1 [Example 594B, (S)-3-(2-(1-(2-(5,6-difluoro-1H-indol-1-yl)acetamido)-2-(3,5-difluorophenyl)ethyl)pyridin-3-yl)benzamide] | 13400 | 12 | – |
| CC(C)(C)OC(=O)N1CCc2c(C(F)(F)F)nn(CC(=O)N[C@@H](Cc3cc(F)cc(F)c3)c3ncccc3-c3ccc(F)c(C(N)=O)c3)c2C1 [Example 378, (S)-tert-butyl 1-(2-(1-(3-(3-carbamoyl-4-fluorophenyl)pyridin-2-yl)-2-(3,5-difluorophenyl)ethylamino)-2-oxoethyl)-3-(trifluoromethyl)-4,5-dihydro-1H-pyrazolo[3,4-c]pyridine-6(7H)-carboxylate] | 17100 | 5 | – |
| Cc1ccc2cc(-c3cccnc3[C@H](Cc3cc(F)cc(F)c3)NC(=O)Cn3nc(C(F)F)c4c3C(F)(F)C3CC43)ccc2n1 (stereo partly drawn) [Example 75, (S)—N-(1-(3-(2-methylquinoline-6-yl)-pyridin-2-yl)-2-(3,5-difluorophenyl)ethyl)-2-(3-(difluoromethyl)-5,6-dihydro-4,5-(methano)-6,6-difluoro-cyclopenta[c]pyrazol-1(4H)-yl)acetamide] | 10700 | 17 | – |
| Cc1cc2ncn(CC(=O)N[C@@H](Cc3cc(F)cc(F)c3)c3ncncc3-c3ccc(Cl)cc3)c2cc1C [Example 320, (S)—N-(1-(5-(4-chlorophenyl)pyrimidin-4-yl)-2-(3,5-difluorophenyl)ethyl)-2-(5,6-dimethyl-1H-benzo[d]imidazol-1-yl)acetamide] | 12500 | 110 | – |
| CC12CCC(c3c(C(F)(F)F)nn(CC(=O)N[C@@H](Cc4cc(F)cc(F)c4)c4ncccc4-c4ccc(F)c(C(N)=O)c4)c31)C2(C)C (stereo partly drawn) [Example 74D, (S)-5-(2-(2-(3,5-difluorophenyl)-1-(2-(L-4,5,6,7-Tetrahydro-3-trifluoromethyl-7,8,8-trimethyl-1H-4,7-(methano)indazol-1-yl)acetamido)ethyl)pyridin-3-yl)-2-fluorobenzamide] | 8470 | 4 | – |
| NC(=O)c1cccc(-c2cccnc2[C@H](Cc2cc(F)cc(Cl)c2)NC(=O)Cc2c[nH]c3ccc(O)cc23)c1 [Example 245F, (S)-3-(2-(2-(3-chloro-5-fluorophenyl)-1-(2-(5-hydroxy-1H-indol-3-yl)acetamido)ethyl)pyridin-3-yl)benzamide] | 30300 | 71 | – |
| NC(=O)c1cccc(-c2cccnc2[C@H](Cc2cc(F)cc(F)c2)NC(=O)Cc2c[nH]c3ccc(=O)[nH]c23)c1 [Example 51, (S)-3-(2-(2-(3,5-difluorophenyl)-1-(2-(5-oxo-4,5-dihydro-1H-pyrrolo[3,2-b]pyridin-3-yl)acetamido)ethyl)pyridin-3-yl)benzamide] | > 53000 | 52 | – |
| CC(C)(C)OC(=O)NCc1ccc2[nH]cc(CC(=O)N[C@@H](Cc3cc(F)cc(F)c3)c3ncccc3-c3cccc(C(N)=O)c3)c2c1 [Example 529, (S)-tert-butyl (3-(2-(1-(3-(3-carbamoylphenyl)pyridin-2-yl)-2-(3,5-difluorophenyl)ethylamino)-2-oxoethyl)-1H-indol-5-yl)methylcarbamate] | 13000 | 53 | – |
| CCC(C(=O)N[C@@H](Cc1cc(F)cc(F)c1)c1ncccc1-c1ccc(F)c(C(N)=O)c1)n1nc(C(F)(F)F)cc1C1CC1 (stereo partly drawn) [Example 511C, 5-(2-((1S)-1-(2-(5-cyclopropyl-3-(trifluoromethyl)-1H-pyrazol-1-yl)butanamido)-2-(3,5-difluorophenyl)ethyl)pyridin-3-yl)-2-fluorobenzamide] | 11800 | 17 | – |
| NC(=O)c1cc(-c2cccnc2[C@H](Cc2cc(F)cc(F)c2)NC(=O)Cc2c[nH]c3ccc(F)cc23)ccc1Cl [Example 412, (S)-2-chloro-5-(2-(2-(3,5-difluorophenyl)-1-(2-(5-fluoro-1H-indol-3-yl)acetamido)ethyl)pyridin-3-yl)benzamide] | 11100 | 80 | – |
| NC(=O)c1cc(-c2cccnc2[C@H](Cc2cc(F)cc(F)c2)NC(=O)Cn2nc3c(c2C(F)(F)F)COC3)ccc1F [Example 203D, (S)-5-(2-(2-(3,5-difluorophenyl)-1-(2-(3-(trifluoromethyl)-4,6-dihydro-2H-furo[3,4-c]pyrazol-2-yl)acetamido)ethyl)pyridin-3-yl)-2-fluorobenzamide] | > 53200 | 0 | – |
| CC(=O)c1cn(CC(=O)N[C@@H](Cc2cc(F)cc(F)c2)c2ncccc2-c2ccc(Cl)cc2)c2ccccc12 [Example 541, (S)-2-(3-acetyl-1H-indol-1-yl)-N-(1-(3-(4-chlorophenyl)pyridin-2-yl)-2-(3,5-difluorophenyl)ethyl)acetamide] | – | 37 | 8150 |
| Cc1ccccc1-c1cccnc1[C@H](Cc1ccccc1)NC(=O)Cc1c[nH]c2ccc(O)cc12 [Example 14, (S)-2-(5-hydroxy-1H-indol-3-yl)-N-(2-phenyl-1-(3-o-tolylpyridin-2-yl)ethyl)acetamide] | 25400 | 76 | – |
| COc1ccc(-c2cccnc2C(Cc2cc(F)cc(F)c2)NC(=O)Cc2c[nH]c3ccc(O)cc23)c(C)c1 (stereo not drawn) [Example 5, N-(2-(3,5-difluorophenyl)-1-(3-(4-methoxy-2-methylphenyl)pyridin-2-yl)ethyl)-2-(5-hydroxy-1H-indol-3-yl)acetamide] | 32700 | 76 | – |
| NC(=O)c1cc(-c2cccnc2[C@H](Cc2cc(F)cc(F)c2)NC(=O)Cn2nc(Br)nc2C2CC2)ccc1F [Example 366, (S)-5-(2-(1-(2-(3-bromo-5-cyclopropyl-1H-1,2,4-triazol-1-yl)acetamido)-2-(3,5-difluorophenyl)ethyl)pyridin-3-yl)-2-fluorobenzamide] | > 53200 | 6 | – |
| NC(=O)c1cc(-c2cccnc2[C@H](Cc2cc(F)cc(F)c2)NC(=O)Cn2nc3c(c2C(F)F)C2CC2C3=O)ccc1F (stereo partly drawn) [Example 220B, 5-(2-((1S)-1-(2-(3-(difluoromethyl)-5-oxo-3b,4,4a,5-tetrahydro-2H-cyclopropa[3,4]cyclopenta[1,2-c]pyrazol-2-yl)acetamido)-2-(3,5-difluorophenyl)ethyl)pyridin-3-yl)-2-fluorobenzamide] | 39200 | 70 | – |
| CNC(=O)c1ccc(-c2cccnc2[C@H](Cc2cc(F)cc(F)c2)NC(=O)Cc2c[nH]c3ccc(O)cc23)cc1 [Example 45, (S)-4-(2-(2-(3,5-difluorophenyl)-1-(2-(5-hydroxy-1H-indol-3-yl)acetamido)ethyl)pyridin-3-yl)-N-methylbenzamide] | > 53000 | 32 | – |
| NC(=O)c1cc(-c2cccnc2[C@H](Cc2cc(F)cc(F)c2)NC(=O)Cc2c[nH]c3ccc(O)cc23)ccn1 [Example 310C, (S)-2-(2-(3,5-difluorophenyl)-1-(2-(5-hydroxy-1H-indol-3-yl)acetamido)ethyl)-3,4′-bipyridine-2′-carboxamide] | > 53000 | 97 | – |
| O=C(Cn1nc(C(F)(F)F)c2c1CCCC2)N[C@H](Cc1cc(F)cc(F)c1)c1ncncc1-c1ccc(Cl)cc1 [Example 383, (R)—N-(1-(5-(4-chlorophenyl)pyrimidin-4-yl)-2-(3,5-difluorophenyl)ethyl)-2-(3-(trifluoromethyl)-4,5,6,7-tetrahydro-1H-indazol-1-yl)acetamide] | 15500 | 32 | – |
| O=C(Cc1c[nH]c2ccc(F)cc12)NC(Cc1cc(F)cc(F)c1)c1nccnc1-c1ccc(Cl)cc1 (stereo not drawn) [Example 459, N-(1-(3-(4-chlorophenyl)pyrazin-2-yl)-2-(3,5-difluorophenyl)ethyl)-2-(5-fluoro-1H-indol-3-yl)acetamide] | 14200 | 28 | – |
| O=C(Cc1c[nH]c2ccc(F)cc12)N[C@@H](Cc1cc(F)cc(F)c1)c1ncccc1-c1ccsc1 [Example 72, (S)—N-(2-(3,5-difluorophenyl)-1-(3-(thiophen-3-yl)pyridin-2-yl)ethyl)-2-(5-fluoro-1H-indol-3-yl)acetamide] | 16200 | 56 | – |
| O=C(Cn1nc(C(F)F)c2c1C(F)(F)C1CC21)N[C@@H](Cc1cc(F)cc(F)c1)c1ncccc1-c1ccc2ncccc2c1 (stereo partly drawn) [Example 411, (S)—N-(1-(3-(quinoline-6-yl)-pyridin-2-yl)-2-(3,5-difluorophenyl)ethyl)-2-(3-(difluoromethyl)-5,6-dihydro-4,5-(methano)-6,6-difluoro-cyclopenta[c]pyrazol-1(4H)-yl)acetamide] | 8980 | 53 | – |
